Assays:
CD8+ T cells = assay: qRT-PCR of cytokine and chemokine mRNAs in CD8+ T cells in vitro; type: cell-based, mice; settings: 0.05 or 0.5 mg/ml in vitro; in some conditions
Source text: Data are representative of two independent experiments. Graphs show the mean±s.e.m. *P<0.05, **P<0.005, ***P<0.001, ****P<0.0001 one-way ANOVA with Tukey's correction.
RNA extraction and qRT-PCR analyses. Total RNA was extracted from tumor samples individually using the RNeasy Fibrous Tissue Midi kit (QIAGEN) or cells treated as indicated using High Capacity Reverse Transcriptase kits (Invitrogen) according to the manufacturer's protocol. Purity and concentration of extracted RNA were checked and quantified by reading at 260 and 280 nm in a NanoDrop spectrophotometer (Thermo Fisher). The qRT-PCR analyses were performed using Syber Green RT-PCR kits (Invitrogen) on a Bio-Rad CFX Connect Real-Time system. Expression levels normalized to 18S or Tubb5 controls.

SW1 tumor cells = assay: SW1 tumor growth in germ free mice colonized with minimal microbiota (ASF); type: in vivo, C3H/HeN mice; settings: two weeks of mucin, 24 days
Source text: Tumor size was monitored over the next 24 days (n=15).
Animals and tumor models. All experimental animal procedures were approved by the Institutional Animal Care and Use Committee of Sanford Burnham Prebys Medical Discovery Institute (SBP) and complied with all relevant ethical regulations for animal testing and research. C57BL/6 mice were obtained from Sanford Burnham Prebys Medical Discovery Institute. OT-I mice were bred at SBP to CD45.1 mice (B6.SJLB6.SJL-Ptprc^a Pepc^b/BoyJ) that were obtained from Jackson Laboratories. C3H/HeOuJ mice were purchased from Jackson laboratories. Male 6-8-week-old mice were used for all experiments. […] Briefly, fresh feces were collected and analyzed by bacterial 16S rRNA gene-specific PCR (30 cycles, universal bacteria primers 8F and 1391R) in combination with aerobic and anaerobic culture of feces in Brain Heart Infusion, Wilkins-Chalgren and Yeast Mold broths, and on Tryptic Soy Agar plates (all media from Difco™ Becton Dickinson) at 37° C. for 7 days. […] Briefly, genomic DNA was extracted from fecal samples and ASF bacteria were quantified by qPCR with species-specific primers. […] Tumor size was measured twice a week for calculation of tumor volume. […]
In order to test the requirement for gut microbiota in prebiotic-induced tumor control, experiments were conducted using mice with a defined, minimal microbiota. […] Tumor size was monitored over the next 24 days.

[1] = system: N-Ras mutant melanoma tumor cells (MaNRAS1); assay: Growth of N-Ras mutant melanoma tumors with prebiotics with or without MEKi; type: in vivo, C57BL/6 mice; settings: in the absence of MEKi; mucin 3% in water or inulin 15% in chow
Experimental: FIG. 7A C57BL/6 mice were injected (s.c.) with NRAS^Q61K mouse melanoma cells (1×10^6) (n=10). The mice were administered with either a control diet alone, or one supplemented with mucin (3%) in drinking water or inulin (15%) in chow starting 14 days prior to tumor inoculation. When tumors reached a volume of 10-20 mm^2, mice were treated with MEKi (PD325901) administered by gavage (10 mg/kg, daily), alone or in combination with inulin or mucin, as indicated. Tumor volume was assessed every 4 days. […] Data are representative of two independent experiments. Graphs show the mean±s.e.m. *P<0.05, **P<0.005, ***P<0.001, ****P<0.0001 by two-way ANOVA with Tukey's correction (A) or one-way ANOVA with Tukey's correction (B-D).
Animals and tumor models. […] Male 6-8-week-old mice were used for all experiments. […] All mice were fed an autoclaved chow diet ad libitum (LabDiet 5K67, Purina Foods). […] Mouse selection for experiments was not formally randomized or blinded. For tumor growth experiments, mice were injected subcutaneously (s.c.) with 1×10^6 tumor cells. Tumor size was measured twice a week for calculation of tumor volume. Tumors were weighed at the time of excision.
Mucin and inulin treatment. For mucin treatment, C57BL/6 mice were subjected to control or water supplemented with 3% mucin (Lee Biosolutions) prior to (14 days) and during tumor inoculation. Water was changed every other day. For inulin treatment, mice were received a diet (TD. 94048, AIN-93M, Purified Diet, ENVIGO) enriched with long-chain inulin by substituting all of sucrose and 5% of corn starch in the control diet or a modified diet (TD. 160256, Modified AIN-93M, Diet w 15% inulin, ENVIGO) prior to (14 days) and during tumor inoculation. Diets were changed 2 times a week.
Experiments were conducted to determine whether prebiotics impacted the effectiveness of MEK inhibitor (MEKi) treatment on tumor growth control and treatment resistance.

gut microbiota = type: in vivo, C57BL/6 mice; settings: in the absence of MEKi
Experimental: (§1) Bacterial DNA extraction and 16S library preparation. […] Mouse fecal pellets were frozen on dry ice, and stored at −80° C. Bacterial DNA was extracted using the QIAmp Fast DNA Stool Mini Kit (Qiagen). To ensure efficient cell lysis, a 5-min bead-beating step using a Mini-Beadbeater-16 was included (Biospec Products, OK, USA). Library preparation for the Illumina MiSeq platform was performed by amplification of the V3-V4 region of the bacterial 16S ribosomal DNA gene using
(§2) C. Adapter and barcode sequences for dual indices were used as described by Illumina. PCR clean up steps were performed with QIAquick 96-PCR Clean up kit (Qiagen, Germany), and library quantification was performed using a KAPA Library Quantification Kit for Illumina platforms (KAPA Biosystems, MA, USA). An Experion Automated Gel Electrophoresis System (Bio-Rad, CA, USA) was used to measure the DNA concentration and purity of the pooled libraries. The 16S libraries were sequenced at Novagene (Beijing, China) and the SBP sequencing Core.
16S sequencing data processing. The original FASTQ files from Illumina 250 basepair paired-end sequencing of the samples were processed using a novel 16S amplicon sequencing pipeline HiMap (http://github.com/taolonglab/himap; BioRxiv 565572). The output of HiMap is Operational Strain Unit (OSU) which contains one or more bacterial strains that best match the 16S sequence and cannot be further distinguished. The percentage similarity between the 16S sequence and the aligned region of 16S rRNA genes of the strains in the OSU is indicated. OSUs mapped to the same strains are grouped together (adding read counts) if percentage similarities are within 3%. Read counts are converted into relative abundance as described in HiMap. Log 10-transformed relative abundances were used for comparisons between samples under different experimental conditions.

[2] = system: intestinal epithelial cells; assay: qRT-PCR of inflammatory mediators in intestinal epithelial cells in vivo; parameters: species or system C57BL/6 mice; settings: mucin 3% in drinking water, naïve mice, 2 weeks
Source text: FIG. 15 illustrates effects of mucin and inulin on expression of inflammatory mediators by intestinal epithelial cells in vivo. qRT-PCR data are shown for mRNA levels of the indicated inflammatory mediators in intestinal epithelial cells from mucin or inulin-treated mice (n=4). Data are representative of two independent experiments. Graphs show the mean s.e.m. *P<0.05, **P<0.005, one-way ANOVA with Tukey's correction.
Isolation of intestinal epithelial cells. A 10 cm section of mouse small intestine was opened longitudinally, minced, washed in 150 mM NaCl containing 1 mM DTT, and then resuspended in dissociation buffer (130 mM NaCl, 10 mM EDTA, 10 mM Hepes [pH 7.4], 10% FCS, and 1 mM DTT). The sections were incubated at 37° C. for 30 min with vigorous shaking to release the epithelial cells from the lamina propria. The epithelial cell suspension was then carefully aspirated, centrifuged, and washed in ice-cold PBS.
The effect of mucin and inulin on intestinal epithelial cells was evaluated in vivo. To this end, mucin (3% in drinking water) or inulin (15% in chow) were administered to naïve C57BL/6 mice for 2 weeks. Intestinal epithelial cells were isolated from small intestine and were assessed for the level of select cytokines and chemokines that are implicated in the activation of the immune response and anti-tumor immunity.

fecal microbiota = assay: 16S rRNA amplicon sequencing of fecal microbiota, YUMM1.5 melanoma model; type: in vivo, C57BL/6 mice; settings: YUMM1.5 model, TABLE 3
Experimental: as §1, §2
16S sequencing data processing. […] OSUs mapped to the same strains are grouped together (adding read counts) if percentage similarities are within 3%. Read counts are converted into relative abundance as described in HiMap. […]

With mucin the “expression of Granzyme B, CCL4, and CCL5 in CD8+ T cells” value (CD8+ T cells) was “enhanced expression”, the SW1 tumor growth (SW1 tumor cells) was “failed to attenuate tumor growth” and the “control of N-Ras mutant tumors” value [1] was “not”. The “phylotype group related to Parasutterella excrementihominis” value (gut microbiota) was “not observed”, the “taxa increased in relative abundance” value (gut microbiota) was “primarily increased the relative abundance of taxa mapped in or near Clostridium cluster XIVa” and the “TNF-α mRNA level in intestinal epithelial cells” value [2] was “elevated”. For the same substance, the taxa enriched (fecal microbiota) was “predominantly enriched taxa with similarity to members of Clostridium cluster XIVa”.

Source: patent US20220370553A1, “PREBIOTIC-INDUCED ANTI-TUMOR IMMUNITY” (Sanford Burnham Prebys Medical Discovery Institute, priority 2019, published 2022)
